In ChEMBL document CHEMBL1201862, “PubChem BioAssay data set” (2004):
Active and inactive are the calls of the source.

Experiments:
Phospholipase D2 = Phospholipase D2 (Homo sapiens, UniProt O14939); assay: PLD2 inhibitor potency in cells, dose response (AID 602147); format: functional;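 further: cellular assay in HEK293 cells overexpressing GFP-tagged PLD2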
Phospholipase D1 = Phospholipase D1 (Homo sapiens, UniProt Q13393); assay: PLD1 inhibitor potency in cells, dose response (AID 602151); format: functional;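 further: cellular PLD1 assay in Calu-1 cells stimulated with PMA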
Sequence of Phospholipase D1 (Q13393 whole entry): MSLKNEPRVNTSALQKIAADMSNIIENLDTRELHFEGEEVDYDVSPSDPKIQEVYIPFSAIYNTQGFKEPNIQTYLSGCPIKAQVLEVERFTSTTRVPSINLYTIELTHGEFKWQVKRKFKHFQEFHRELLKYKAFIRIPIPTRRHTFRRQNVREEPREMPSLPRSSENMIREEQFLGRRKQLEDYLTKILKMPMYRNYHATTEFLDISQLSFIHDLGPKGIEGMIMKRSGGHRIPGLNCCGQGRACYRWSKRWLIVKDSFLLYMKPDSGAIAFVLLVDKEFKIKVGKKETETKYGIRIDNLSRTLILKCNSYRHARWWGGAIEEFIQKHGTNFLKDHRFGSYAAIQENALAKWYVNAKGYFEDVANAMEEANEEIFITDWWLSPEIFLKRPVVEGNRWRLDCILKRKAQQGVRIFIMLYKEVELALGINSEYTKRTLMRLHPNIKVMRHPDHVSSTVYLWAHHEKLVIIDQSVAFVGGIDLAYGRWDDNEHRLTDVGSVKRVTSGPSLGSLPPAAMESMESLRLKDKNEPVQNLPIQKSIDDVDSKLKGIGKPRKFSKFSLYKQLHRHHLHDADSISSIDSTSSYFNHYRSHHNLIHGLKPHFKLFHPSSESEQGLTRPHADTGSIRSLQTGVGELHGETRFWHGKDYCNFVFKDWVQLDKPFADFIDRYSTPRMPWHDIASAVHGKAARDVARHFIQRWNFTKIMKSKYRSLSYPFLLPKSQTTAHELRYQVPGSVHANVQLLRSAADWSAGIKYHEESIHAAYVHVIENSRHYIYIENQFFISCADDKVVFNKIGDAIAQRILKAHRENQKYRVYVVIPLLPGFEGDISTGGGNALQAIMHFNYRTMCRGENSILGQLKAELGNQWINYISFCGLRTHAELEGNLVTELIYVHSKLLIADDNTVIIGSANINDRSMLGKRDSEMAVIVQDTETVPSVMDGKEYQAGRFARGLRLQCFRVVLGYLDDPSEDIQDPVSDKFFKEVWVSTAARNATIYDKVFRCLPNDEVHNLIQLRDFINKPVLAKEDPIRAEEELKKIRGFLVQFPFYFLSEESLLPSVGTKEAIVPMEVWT

CAAX prenyl protease 2 [1] = molecular target: CAAX prenyl protease 2 (Homo sapiens, UniProt Q9Y256); assay: human Rce1 protease inhibitors, dose response, biochemical, yeast membranes, quenched-peptide fluorescence, cherry-pick (AID 588849)
Sequence of CAAX prenyl protease 2 (Homo sapiens, UniProt Q9Y256) (Q9Y256 whole entry): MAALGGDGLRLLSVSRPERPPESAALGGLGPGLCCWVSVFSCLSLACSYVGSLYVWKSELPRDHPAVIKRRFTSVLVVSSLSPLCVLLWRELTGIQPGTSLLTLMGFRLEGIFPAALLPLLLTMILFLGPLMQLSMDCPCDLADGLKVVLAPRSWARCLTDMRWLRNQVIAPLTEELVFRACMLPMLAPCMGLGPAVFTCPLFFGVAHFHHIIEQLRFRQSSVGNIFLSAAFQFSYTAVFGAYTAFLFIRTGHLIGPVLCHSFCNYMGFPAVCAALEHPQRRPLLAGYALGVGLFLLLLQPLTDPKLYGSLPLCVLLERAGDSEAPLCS

CAAX prenyl protease 2 [2] = molecular target: CAAX prenyl protease 2 (Saccharomyces cerevisiae S288c, UniProt Q03530); format: biochemical
Sequence of CAAX prenyl protease 2 (Saccharomyces cerevisiae S288c, UniProt Q03530) (Q03530 whole entry): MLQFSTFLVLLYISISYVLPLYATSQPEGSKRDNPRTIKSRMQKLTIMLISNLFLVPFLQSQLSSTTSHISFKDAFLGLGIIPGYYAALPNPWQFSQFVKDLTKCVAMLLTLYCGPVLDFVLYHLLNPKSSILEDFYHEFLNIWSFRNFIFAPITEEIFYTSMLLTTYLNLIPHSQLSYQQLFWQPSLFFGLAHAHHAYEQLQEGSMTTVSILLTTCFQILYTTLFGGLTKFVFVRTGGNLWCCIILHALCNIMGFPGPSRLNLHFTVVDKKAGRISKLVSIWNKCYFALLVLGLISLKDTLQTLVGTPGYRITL

HEK293 [3] = assay: cytotoxicity in HEK293T NF-kB-Luc cells, SAR follow-up, cytotoxicity control for NF-kB activator project, cell-based, resazurin fluorescence (AID 493251); format: functional; settings: Homo sapiens
Jurkat [4] = assay: SAR Analysis of small molecule inhibitors of T-cell specific antigen receptor-induced NF-kB activation in a Jurkat cell line using a luminescence assay - Set 2. [Related pubchem assays (depositor defined):AID435003, AID435012, AID465]; format: functional, cell-based; settings: Homo sapiens
[5] = Shn3 3'UTR reporter inhibitors, dose response, cell-based, Clone20 osteoblasts, firefly luciferase, cherry-picked (AID 624132); format: functional;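 further: firefly luciferase luminescence from reporter carrying the Shn3 3'UTR in osteoblasts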
[6] = Fluorescence-based cell-based high throughput dose response assay for inhibitors of the interaction of nucleotide-binding oligomerization domain containing 2 (NOD2) and the receptor-interacting serine-threonine kinase 2 (RIPK2).; format: functional; settings: Homo sapiens
[7] = inhibitors of firefly luciferase expression or activity, dose response, H4 neuroglioma cells, luminescence (AID 1990); format: functional, cell-based
[8] = Luminescence Cell-Based Dose Response HTS to Identify Inhibitors of 5'UTR Stem-Loop Driven Prion Protein mRNA Translation in H4 Neuroglioblastoma Cells. [Related pubchem assays: 1827 (Project Summary), 1813 (Primary HTS)]; format: functional
Paired box protein Pax-8 = Paired box protein Pax-8 (Homo sapiens, UniProt Q06710); assay: inhibitors of PAX8-driven TPO luciferase reporter, dose response, RMG-I cells, cherry-pick (AID 687027); format: functional, cell-based;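 further: luciferase reporter driven by Pax8 target thyroperoxidase promoter measured by SteadyGlo luminescence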
Sequence of Paired box protein Pax-8 (Q06710 whole entry): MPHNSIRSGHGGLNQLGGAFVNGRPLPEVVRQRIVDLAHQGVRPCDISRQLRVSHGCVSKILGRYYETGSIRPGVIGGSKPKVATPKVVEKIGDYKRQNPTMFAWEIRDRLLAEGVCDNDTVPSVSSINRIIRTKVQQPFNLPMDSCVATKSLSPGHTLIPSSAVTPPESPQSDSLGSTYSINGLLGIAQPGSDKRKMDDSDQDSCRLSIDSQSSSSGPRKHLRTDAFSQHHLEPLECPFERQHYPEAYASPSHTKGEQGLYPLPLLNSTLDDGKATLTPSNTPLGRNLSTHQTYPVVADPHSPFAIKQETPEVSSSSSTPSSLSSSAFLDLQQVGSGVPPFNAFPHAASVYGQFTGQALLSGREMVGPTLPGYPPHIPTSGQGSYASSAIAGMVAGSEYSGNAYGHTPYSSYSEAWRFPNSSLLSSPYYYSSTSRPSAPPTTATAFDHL

[9] = HepG2 cell cytotoxicity, dose response, cytotoxicity control for Shn3 inhibitor project, CellTiter-Glo, cherry-picked (AID 624134); format: functional, cell-based
[10] = control 3'UTR Renilla luciferase suppression, dose response, counter-screen for Shn3 inhibitor project, cell-based, Clone20-Shn3RL, cherry-picked (AID 624133); format: functional
HEK293 [11] = assay: SAR Analysis of small molecule inhibitors of T-cell specific antigen receptor-induced NF-kB activation in a HEK-293T cell line using a luminescence assay - Set 2. [Related pubchem assays (depositor defined):AID435003, AID435012, AID489026]; format: functional, cell-based; settings: Homo sapiens
[12] = inhibitors of SNCA 5'UTR-driven reporter translation, confirmation, H4 neuroglioma cells, luminescence (AID 1988); format: functional, cell-based
HeLa = assay: HeLa cell cytotoxicity, dose response, cytotoxicity control, 48 h, plate reader, cherry-picks (AID 504942); format: functional, cell-based; settings: Homo sapiens
[13] = molecular target: Acyl-homoserine lactone acylase PvdQ (Pseudomonas aeruginosa (strain LESB58), UniProt Q9I194); assay: P. aeruginosa PvdQ acylase inhibitors, dose response, biochemical, fluorescence, plate reader and imaging, cherry-picks (AID 493231)
Sequence of Acyl-homoserine lactone acylase PvdQ (Q9I194 24-193 limits assumed): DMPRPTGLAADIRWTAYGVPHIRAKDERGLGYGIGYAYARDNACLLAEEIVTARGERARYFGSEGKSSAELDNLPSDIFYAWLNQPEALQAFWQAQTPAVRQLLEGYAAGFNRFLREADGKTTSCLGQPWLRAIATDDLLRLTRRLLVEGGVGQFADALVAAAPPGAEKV
Sequence of Acyl-homoserine lactone acylase PvdQ (Q9I194 217-762 limits assumed): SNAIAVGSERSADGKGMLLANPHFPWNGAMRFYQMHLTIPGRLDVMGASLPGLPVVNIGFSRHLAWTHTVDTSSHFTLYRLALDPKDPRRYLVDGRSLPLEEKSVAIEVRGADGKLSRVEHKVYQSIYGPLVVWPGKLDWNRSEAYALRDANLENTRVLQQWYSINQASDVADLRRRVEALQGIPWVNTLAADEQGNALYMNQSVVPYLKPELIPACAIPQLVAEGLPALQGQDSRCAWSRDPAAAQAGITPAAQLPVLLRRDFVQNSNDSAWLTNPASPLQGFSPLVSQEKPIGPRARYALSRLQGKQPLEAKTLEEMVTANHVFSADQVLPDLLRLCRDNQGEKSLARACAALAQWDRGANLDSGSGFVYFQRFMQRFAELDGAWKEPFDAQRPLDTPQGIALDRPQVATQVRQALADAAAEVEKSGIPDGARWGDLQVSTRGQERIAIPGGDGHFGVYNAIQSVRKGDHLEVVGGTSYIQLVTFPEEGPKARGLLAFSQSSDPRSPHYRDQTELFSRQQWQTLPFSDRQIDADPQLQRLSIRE

BJ [14] = assay: cytotoxicity toward BJ-TERT fibroblasts, dose response, cell-based, RAS-independent, luminescence (AID 1933); format: functional; settings: Homo sapiens
[15] = cytotoxicity in HEK-293T cells, dose response, cytotoxicity control for TCR NF-kB inhibitor project, luminescence, T-cell screen hits (AID 489026); format: functional, cell-based;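 further: cells exposed to compound about 14 hours before the viability readout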
[16] = Luminescence Cell-Based Dose Retest to Confirm Inhibitors of Cancer Stem Cells. [Related pubchem assays (depositor defined):AID2717, AID2721]; format: functional; settings: Homo sapiens
BJ [17] = assay: cytotoxicity toward BJ-TERT-LT-ST fibroblasts, dose response, cell-based, RAS-independent, luminescence (AID 1935); format: functional; settings: Homo sapiens;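 further: BJ fibroblasts immortalized with TERT plus LT and ST oncogenes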
[18] = cytotoxicity toward DRD oncogenic fibroblasts, dose response, cell-based, non-viral oncogenic, luminescence (AID 1934); format: functional; settings: Homo sapiens
BJ [19] = assay: cells; format: functional, cell-based; settings: Homo sapiens
BJ [20] = assay: cytotoxicity toward Ras-transformed BJeLR fibroblasts, dose response, cell-based, alamar blue fluorescence, cherrypicked samples (AID 2631); format: functional; settings: Homo sapiens;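 further: confirmatory dose-response assay in RAS-dependent BJ fibroblasts engineered with TERT, LT and ST, with cytotoxicity read by fluorescence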
[21] = Luminescence-based counterscreen assay for KLF5 inhibitors: dose response cell-based high throughput screening assay to identify cytotoxic compounds using the IEC-6 intestinal epithelial cell line. [Related pubchem assays: 1700 (Primary screen.), 1834 (Confirmation screen.), 1858 (Summary AID.), 1905 (Counterscreen.)]; format: functional
[22] = cytotoxicity in HEK-293T NF-kB-Luc cells, dose response, cytotoxicity control for B/T-cell NF-kB inhibitor project, cell-based, uHTS hits (AID 489019); format: functional;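 further: IC50 reflects cytotoxicity as loss of cell viability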
[23] = PAX2 cell-based inhibition, dose response, selectivity assay for PAX8 inhibitor project, plate reader, dry powder samples (AID 743048); format: functional;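 further: HEK293 cells carrying a WT1 promoter luciferase reporter driven by expressed Pax2; potency is for inhibition of Pax2 driven reporter signal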
[24] = cytotoxicity dependent on PAX8, dose response, cell-based, plate reader, dry powder (AID 743049); format: functional
[25] = reduction of Shn3 3'UTR firefly luciferase signal, dose response, Schnurri-3 inhibitor project, cell-based, Clone20 osteoblasts, cherry-pick, set 2 (AID 720490); format: functional;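 further: actives lower the luminescence signal as inhibitors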
Escherichia coli = assay: microbe, parasite or virus in culture
[26] = IGROV1 ovarian cancer cell cytotoxicity, dose response, PAX8 inhibitor project, plate reader, dry powder samples (AID 743043); format: functional, cell-based; settings: IGROV-1
[27] = PAX5 activity inhibitors, dose response, selectivity assay for PAX8 inhibitor project, cell-based, plate reader, dry powder samples (AID 743047); format: functional;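 further: HEK293 cells carrying a Pax5 driven CD19 promoter luciferase reporter; potency of inhibitors that lower reporter luminescence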
Jurkat [28] = assay: antigen receptor-induced NF-kB inhibitors, dose response, Jurkat, luciferase reporter, luminescence, B- and T-cell (AID 489004); format: functional, cell-based; settings: Homo sapiens;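 further: NF-kB luciferase reporter Jurkat cells stimulated with PMA plus ionomycin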
[29] = molecular target: T1, Heat shock factor protein 1 (Mus musculus, UniProt P38532); assay: inhibition of MG132-induced HSE-luciferase signal, confirmation, cell-based, NIH3T3, luminescence, dose retest (AID 2382); format: functional;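 further: NIH3T3 fibroblasts with HSF1-driven luciferase reporter stressed by proteasome inhibitor MG132; luminescence from HSF1-driven luciferase expression after 8 hours of MG132 stress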
T1 sequence (P38532 whole entry): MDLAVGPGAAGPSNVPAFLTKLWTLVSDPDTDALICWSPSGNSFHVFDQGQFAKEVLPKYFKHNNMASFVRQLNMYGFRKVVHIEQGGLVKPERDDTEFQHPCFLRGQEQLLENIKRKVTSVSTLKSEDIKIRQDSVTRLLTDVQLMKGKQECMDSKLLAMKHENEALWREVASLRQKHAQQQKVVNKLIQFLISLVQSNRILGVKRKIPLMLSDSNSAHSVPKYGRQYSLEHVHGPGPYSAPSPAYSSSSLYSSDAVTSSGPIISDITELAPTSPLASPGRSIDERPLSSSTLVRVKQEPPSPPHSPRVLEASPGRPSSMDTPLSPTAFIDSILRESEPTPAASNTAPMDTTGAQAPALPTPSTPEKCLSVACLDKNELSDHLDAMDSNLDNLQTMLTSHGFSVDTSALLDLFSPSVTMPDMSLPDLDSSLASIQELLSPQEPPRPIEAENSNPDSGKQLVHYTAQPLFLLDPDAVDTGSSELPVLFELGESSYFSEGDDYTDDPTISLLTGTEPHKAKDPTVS

[30] = IOSE-T80 ovarian epithelial cell cytotoxicity, dose response, cytotoxicity control for PAX8 inhibitor project, plate reader, dry powder samples (AID 743045); format: functional, cell-based
[31] = cytotoxicity in COV362 ovarian cancer cells, dose response, cytotoxicity control for PAX8 inhibitor project, cell-based, plate reader, dry powder, SA12 (AID 743144); format: functional

Sequence of Phospholipase D2 (O14939 whole entry): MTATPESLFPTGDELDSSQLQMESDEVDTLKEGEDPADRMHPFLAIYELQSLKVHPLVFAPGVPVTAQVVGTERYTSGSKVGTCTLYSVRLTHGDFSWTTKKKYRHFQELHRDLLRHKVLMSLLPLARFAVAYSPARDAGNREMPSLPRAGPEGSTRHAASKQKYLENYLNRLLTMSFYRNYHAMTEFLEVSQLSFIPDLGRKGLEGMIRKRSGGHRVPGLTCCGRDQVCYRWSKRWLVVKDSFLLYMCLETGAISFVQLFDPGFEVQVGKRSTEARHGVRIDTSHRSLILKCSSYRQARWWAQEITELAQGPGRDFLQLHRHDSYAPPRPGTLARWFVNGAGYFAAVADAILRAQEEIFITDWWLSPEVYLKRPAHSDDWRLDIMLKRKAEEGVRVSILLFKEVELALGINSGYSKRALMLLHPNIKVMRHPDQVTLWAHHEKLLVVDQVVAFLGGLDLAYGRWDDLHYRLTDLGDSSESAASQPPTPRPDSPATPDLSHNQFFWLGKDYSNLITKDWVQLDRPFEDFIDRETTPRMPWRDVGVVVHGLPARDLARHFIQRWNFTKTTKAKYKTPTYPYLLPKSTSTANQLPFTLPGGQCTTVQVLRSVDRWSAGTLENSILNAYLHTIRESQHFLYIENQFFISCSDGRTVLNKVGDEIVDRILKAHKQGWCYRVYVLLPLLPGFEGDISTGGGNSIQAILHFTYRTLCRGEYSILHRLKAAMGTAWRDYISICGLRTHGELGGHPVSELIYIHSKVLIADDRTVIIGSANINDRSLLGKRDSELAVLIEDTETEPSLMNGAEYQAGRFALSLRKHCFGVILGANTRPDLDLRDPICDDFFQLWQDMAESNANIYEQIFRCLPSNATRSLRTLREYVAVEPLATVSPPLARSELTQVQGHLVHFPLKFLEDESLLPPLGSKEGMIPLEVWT

O=C(NCCN1CCC2(CC1)C(=O)Oc1ccccc12)c1cnc2ccccc2c1
IC50 (Phospholipase D2): 20 µM (active) | IC50 (Phospholipase D1): 20 µM (inactive)

O=C(c1cc(-c2ccccc2)nc2ccccc12)N1CCN(c2ccccn2)CC1
AC50 (CAAX prenyl protease 2 [1]): 17 µM (active) | AC50 (CAAX prenyl protease 2 [2]): 4.89 µM (active)

CC(=O)N1CCN(c2ccc(NC(=O)c3ccc([N+](=O)[O-])o3)cc2Cl)CC1
IC50 (HEK293 [3]): 55.3 µM (inactive) | IC50 (Jurkat [4]): 27.3 µM (inactive) | AC50 [5]: 1.08 µM (active) | IC50 [6]: 49.8 µM (inactive) | EC50 [7]: 11.1 µM (active) | EC50 [8]: 8.31 µM (active) | AC50 (Paired box protein Pax-8): 5.83 µM (active) | AC50 [9]: 48.1 µM (active) | AC50 [10]: 11.2 µM (active) | IC50 (HEK293 [11]): 22 µM (inactive) | EC50 [12]: 9.29 µM (active)

COC(=O)c1ccc(/C=C(\C#N)c2ccccn2)cc1
AC50 (HeLa): 103 µM (active) | AC50 [13]: 2.61 µM (active)

O=Cc1cc2ccccc2nc1SCc1ccc(Cl)c(Cl)c1
EC50 (BJ [14]): 0.279 µM (active) | IC50 [15]: > 80 µM (inactive) | AC50 [16]: 2.82 µM (active) | EC50 [7]: > 120 µM (not active) | EC50 [8]: > 120 µM (not active) | EC50 (BJ [17]): 0.396 µM (inconclusive) | EC50 [18]: 0.567 µM (active) | EC50 (BJ [19]): 0.777 µM (active) | EC50 (BJ [20]): < 0.104 µM (active)

O=C(NCCc1ccccc1)c1ccc2c(c1)OCCCO2
IC50 [21]: > 39.8 µM (not active) | IC50 [22]: > 80 µM (inactive) | AC50 [23]: 2 µM (active) | AC50 [24]: 58.7 µM (active) | AC50 [25]: 3.96 µM (active) | AC50 (Escherichia coli): 34.1 µM (active) | AC50 [26]: 40.3 µM (active) | AC50 [5]: 1.05 µM (active) | AC50 [27]: 2.29 µM (active) | AC50 (Paired box protein Pax-8): 2.38 µM (active) | AC50 [9]: > 70 µM (inactive) | IC50 (Jurkat [28]): 0.64 µM (active) | EC50 [29]: < 0.16 µM (active) | AC50 [30]: 14.2 µM (active) | AC50 [31]: 84.9 µM (active)
